Results on four compounds are retold here after patent publication US5250548A, “Angiotensin II receptor antagonists” (Abbott Laboratories, priority 1992, dated 1993).

In one series the test system is angiotensin II receptor. The following applies: cited from earlier work.
For series [1] the following is noted: cited from earlier work.
The test system of another series is blood pressure. The note with it: after intravenous administration; due to its activity as an angiotensin receptor agonist; cited from earlier work.
In series [2] the test system is renal artery ligated rats. Nature of the series: In vivo blood pressure lowering in renal artery ligated hypertensive rats. The following applies: dose of 30 mg/kg. Set-up: species or system rat.
In series [3] the test system is hypertension and congestive heart failure. The following applies: cited from earlier work.

`CNCC(=O)N[C@@H](CCCN=C(N)N)C(=O)N[C@H](C(=O)N[C@@H](Cc1ccc(O)cc1)C(=O)N[C@H](C(=O)N[C@@H](Cc1cnc[nH]1)C(=O)N1CCC[C@H]1C(=O)N[C@@H](C)C(=O)O)C(C)C)C(C)C` [saralasin, [Sar^1,Ala^8] angiotensin II]: the “antagonism of the actions of angiotensin II” value with angiotensin II receptor was “potent antagonist of the actions of angiotensin II”. Further, the oral bioavailability entry in series [1] was “very poor oral bioavailability”. For the same compound, the “effect on blood pressure” value in the series on blood pressure is “initial increase in blood pressure after intravenous administration”.
For `CCCN(Cc1ccc(-c2ccccc2-c2nnn[nH]2)cc1)c1ncccc1C(=O)O` [Example 88, 2-{N-Propyl-N-[(2'-[1H-tetrazol-5-yl]biphenyl-4-yl)methyl]amino}pyridine-3-carboxylic acid], the “reduction in mean arterial blood pressure (MAP)” value in series [2] was “caused a reduction in mean arterial blood pressure (MAP)”.
Turning to `COc1ccc(C[C@H](NC(=O)CC(C)(C)N)C(=O)N[C@@H](Cc2cnc[nH]2)C(=O)N[C@@H](CC2CCCCC2)[C@@H](O)[C@@H](O)CC(C)C)cc1` [enalkiren], the clinical efficacy result in series [3] was “clinical efficacy in treating hypertension and congestive heart failure”.
For `C[C@H](CS)C(=O)N1CCC[C@H]1C(=O)O` [captopril], the clinical efficacy result in series [3] is “clinical efficacy in treating hypertension and congestive heart failure”.
